Experimental data published in patent publication EP4640213A1, “ORAL PHARMACEUTICAL PREPARATION COMPRISING SODIUM-GLUCOSE COTRANSPORTER-2 INHIBITOR AND ANGIOTENSIN II RECEPTOR BLOCKER” (THPharm Corp., priority 2022, dated 2024).

Columns and labels:
[1] = system: A549 cells; assay: Cell survival rate (MTT) in A549 cells; type: cell-based; conditions: up to a concentration of 25 µM, 24 and 48 hours, FIGS. 1A, 1B
Description: (§1) To screen angiotensin II receptor blockers for use in combinations of angiotensin II receptor blockers (ARBs) and sodium-glucose cotransporter-2 (SGLT-2) inhibitors for the treatment of heart failure, cell survival rates were evaluated.
(§2) Specifically, A549 cells were obtained from the Korean Cell Line Bank (KCLB) and subcultured using a RPMI-1640 medium supplemented with 10% fetal bovine serum (FBS) and 1% Penicillin, and MDCK cells were obtained from ATCC and subcultured using a DMEM medium supplemented with 10% FBS. 200 µl each of the A549 cells and MDCK cells incubated in an incubator under 37°C and 5% CO2 conditions were dispensed at 2 × 10^4 cells/well in a 96-well plate, and then a control group was treated with 100 µl of the medium, and experimental groups were treated with 1.25, 25, 50, and 100 µM of Telmisartan or olmesartan, respectively. After 24 and 48 hours, all of the wells were treated with 50 µl each of a 2 mg/ml MTT reagent and incubated in an incubator for 3 hours, and then each well was added with […] of DMSO, wrapped in foil, stirred for 30 minutes at room temperature, and the absorbance was measured at 570 nm to obtain the cell survival rate.

[2] = system: MDCK cells; assay: Cell survival rate (MTT) in MDCK cells; type: cell-based; conditions: up to a concentration of 25 µM, 24 and 48 hours, FIGS. 2A, 2B
Description: as §1, §2

[3] = system: angiotensin converting enzyme (ACE); assay: ACE ELISA assay (ACE protein expression) in LPS inflammation-induced H9c2 cells; type: cell-based, rat; conditions: FIG. 3
Description: Specifically, H9c2 cells as a human cardiac cell line were obtained and used from the Korea Cell Line Bank (KCLB 40071, Korea) and incubated and prepared in a DMEM medium supplemented with 10% FBS and 1% antibiotic-antimycotic (10 units/ml penicillin, 100 µg/ml streptomycin, 0.25 µg/ml amphotericin) under 37°C and 5% CO2 conditions.
To perform the ELISA assay, 10,000 pg/ml, 5,000 pg/ml, 2,500 pg/ml, 1,250 pg/ml, 625 pg/ml, 312 pg/ml, and 156 pg/ml of Human ACE standard solutions and a standard dilution buffer were added by 0.1 ml to each well of an antibody-coated 96-well plate. […] Thereafter, each well was added with 90 µl of the prepared TMB solution, incubated for 20 to 25 minutes in a dark room at 37°C, and then treated with each 0.1 ml of the prepared TMB stop solution to stop an ACE ELISA reaction, and the OD absorbance at 450 nm was read in a microplate reader within 30 minutes, and the relative OD450 was derived using the following Equation. […]

[4] = system: angiotensin converting enzyme (ACE); assay: ACE mRNA expression (RT-PCR) in LPS inflammation-induced H9c2 cells; type: cell-based, rat
Description: Specifically, H9c2 cells as a […] cardiac cell line were obtained and used from the Korea Cell Line Bank (KCLB 40071, Korea) and incubated and prepared in a DMEM medium supplemented with 10% FBS and 1% antibiotic-antimycotic (10 units/ml penicillin, 100 µg/ml streptomycin, 0.25 µg/ml amphotericin) under 37°C and 5% CO2 conditions.
To confirm the effect on ACE activity, the prepared H9c2 cells were treated with 2.5 µg/ml of Lipopolysaccharide (LPS), which was 2.5 times more than the amount used in conventional inflammation-related experiments, to induce inflammation, thereby setting the optimized conditions for confirming ACE expression. LPS inflammation-induced H9c2 cells were treated with 10, 25, and 50 µM Telmisartan or olmesartan, respectively, and the H9c2 cells were harvested for ELISA assay. The harvested cells were treated with 1 ml of an RIPA buffer and stirred at 4°C for 30 minutes to extract proteins. Thereafter, the proteins were centrifuged at 4°C and 10,000 rpm for 20 minutes, and the supernatant was transferred to a sterilized tube and stored at - 80°C for use in the ELISA assay.
Specifically, LPS inflammation-induced H9c2 cells in Experimental Example 1-2 were treated with 10 or 25 µM Telmisartan and 10 or 50 µM olmesartan, and then treated with 200 µl of chloroform together with 1 ml of TRIZol (Sigma, USA), gently mixed, and separated for 10 minutes, and then centrifuged at 4°C and 10,000 rpm for 10 minutes. After centrifugation, only the supernatant from the tube was taken and transferred to a new sterile tube, and the supernatant was treated with 500 µl of isopropanol to precipitate RNA. The precipitated RNA was centrifuged at 4°C, 10,000 rpm for 10 minutes, and then the supernatant except for the pellets in the tube was fully removed, and the RNA pellets were treated with 500 µl of 75% ethyl alcohol and thoroughly washed. The washed pellets were centrifuged at 4°C, 10,000 rpm for 5 minutes, and then the supernatant except the pellets was fully removed. The tube containing the pellets from which the supernatant had been cleanly removed was treated with diethyl pyrocarbonate (DEPC)-water and stored at - 80°C for use in an RT-PCR experiment.
RT-PCR was performed by synthesizing cDNA from mRNA using an RT-PCR kit containing DNA polymerase, buffer, dNTP, and tracking dye, and then using ACE primers in Table 1 under the conditions in Table 2 for 35 cycles. The PCR products were electrophoresed on a […] agarose gel, identified using a UV transilluminator, and expressed as normalized to GAPDH for quantitative comparison.
In order to confirm the effect of each combination or single substance on the mRNA expression of ACE, the experimental samples in Table 3 were treated to H9c2 cells induced with LPS inflammation in Experimental Example 1-2, respectively, and then the mRNA expression of ACE was evaluated in the same manner as in Experimental Example 1-3.

[5] = 4-week repeated oral administration toxicity; type: in vivo, Sprague-Dawley rats; conditions: oral daily for 4 weeks
Description: During the test, general symptom observation, blood test, and body weight measurement were performed, and after the observation period ended, the rats were euthanized and autopsied.

[6] = in the presence of Dapagliflozin; 80 mg / 10 mg; 90% confidence interval 0.99 to 1.43
[7] = Single oral administration pharmacokinetic test; conditions: beagle dogs
Description: The control and test drugs were administered orally once by a single tablet, and were crossed over (4 × 4 cross over) four times at one-week intervals. Fasting was performed from 5 to 6 pm the day before administration. The control and test drugs were administered into the tongue root, and then administered with approximately 15 ml of water, and feed was provided approximately 4 hours after administration. Blood was collected at 0 (blank), 0.25, 0.5, 0.75, 1, 1.5, 2, 3, 4, 5, 6, 8, 12, and 24 hours (14 times) after administration of the control and test drugs, and left by a 7-day drug-free period.

SMILES: CCCc1nc2c(C)cc(-c3nc4ccccc4n3C)cc2n1Cc1ccc(-c2ccccc2C(=O)O)cc1 [Telmisartan, 4'-[(1,4'-dimethyl-2'-propyl[2,6'-bi-1H-benzimidazol]-1'-yl)methyl][1,1'-biphenyl]-2-carboxylic acid]
- cell survival rate [1]: no effect on cell survival rate
- cell survival rate [2]: no effect on cell survival rate
- ACE expression inhibition effect ([3]; 25 µM treatment group): the best
- ACE expression inhibition effect ([3]; all treatment concentrations (10, 25, 50 µM)): superior to that of olmesartan
- mRNA expression ([4]; 25 µM treatment group, FIG. 4): mostly inhibited
- mRNA expression inhibition effect ([4]; all treatment concentrations, FIG. 4): superior to that of olmesartan
- mRNA expression of ACE ([4]; alone administration, low-concentration groups of 2.5 µM to 10 µM, FIGS. 5 and 6): did not decrease to a normal level
- body weight measurement [5]: a tendency for inhibiting weight gain
- Cmax of Telmisartan (T/R ratio) [6]: approximately 1.19 times
- difference in AUCall between groups in the single administration group and the combined administration group [7]: 1.0 times
